The values below come from PMC12177922, “In Vivo Ribosome-Amplified MetaBOlism, RAMBO, Effect Observed by Real Time Pulse Chase, RTPC, NMR Spectroscopy” (Biochemistry, 2025).

Holding throughout (assay type): biochemical
One test has as its target T1, LDH-A (Escherichia coli, UniProt P52643, form not given, species not given).
T1 construct: gene ldhA; commercial recombinant enzyme (Sigma-Aldrich); authors doubt its source; printed P33232 is the quinone-dependent LldD, not an NADH-dependent LDH, so identity unresolved
Briefly: direct 1H NMR kinetic assay (lactate methyl peak). Conditions: substrate inhibition; 0.5 mM NADH, 0.04 nM enzyme, pH 7.5, 10 mM sodium phosphate, 50 mM KCl, 10 mM MgCl2, 10 °C, no ribosomes.

The target in another test is T2, PFK-A (Geobacillus stearothermophilus, UniProt P00512).
T2 construct: gene pfkA; commercial lyophilized enzyme (Sigma-Aldrich)
Briefly: direct 1H NMR kinetic assay (FBP peak). To be noted: substrate inhibition; 1 mM F6P, 1 nM enzyme, pH 7.5, 10 mM sodium phosphate, 50 mM KCl, 10 mM MgCl2, 10 °C, no ribosomes.

For another test, the target named is T3, PYK-F (Escherichia coli, UniProt P0AD61).
T3 construct: gene pykF; full length, 470 residues, 50 kDa monomer, N-terminal 6xHis tag kept, pET-28a(+), expressed in E. coli BL21(DE3), Ni-NTA purified, homotetramer
As to the kind of experiment: direct 1H NMR kinetic assay (pyruvate methyl peak). Conditions: 2 mM PEP, 4 mM ADP, pH 7.5, 10 °C, no ribosomes; 0-8x of 50 μg/mL.

Turning to `CC(=O)C(=O)O` [PYR], the KI at LDH-A was found to be 495 ± 74.0 µM.

`Nc1ncnc2c1ncn2[C@@H]1O[C@H](COP(=O)(O)OP(=O)(O)OP(=O)(O)O)[C@@H](O)[C@H]1O` [ATP] had a KI at PFK-A of 5.6 ± 1.2 mM.

With `NC[C@H]1O[C@H](O[C@H]2[C@H](O)[C@@H](O[C@H]3O[C@H](CO)[C@@H](O)[C@H](N)[C@H]3O)[C@H](N)C[C@@H]2N)[C@H](O)[C@@H](O)[C@@H]1O` [Kan], at PYK-F, the reduced activity result is “Ths, Kan and Str reduced PYK-F activity in both the presence and absence of ribosomes”.

On to `CN[C@@H]1[C@H](O[C@H]2[C@H](O[C@H]3[C@H](O)[C@@H](O)[C@H](N=C(N)N)[C@@H](O)[C@@H]3N=C(N)N)O[C@@H](C)[C@]2(O)C=O)O[C@@H](CO)[C@H](O)[C@H]1O` [Str], for which the reduced activity result at PYK-F was “Ths, Kan and Str reduced PYK-F activity in both the presence and absence of ribosomes”.
